Reference: US12643910B2, “Substituted pyrazolo[3,4-b]pyridines as ectonucleotide pyrophosphatase/phosphodiesterase 1 (ENPP1) modulators” (SANFORD BURNHAM PREBYS MEDICAL DISCOVERY INSTITUTE, priority 2019, dated 2026)

Tests used:
[1] = molecular target: T1, ENPP3 (Homo sapiens, UniProt O14638); experiment: ENPP3 Km ATP assay; type: biochemical; settings: ATP at Km
T1 sequence (O14638 1-875): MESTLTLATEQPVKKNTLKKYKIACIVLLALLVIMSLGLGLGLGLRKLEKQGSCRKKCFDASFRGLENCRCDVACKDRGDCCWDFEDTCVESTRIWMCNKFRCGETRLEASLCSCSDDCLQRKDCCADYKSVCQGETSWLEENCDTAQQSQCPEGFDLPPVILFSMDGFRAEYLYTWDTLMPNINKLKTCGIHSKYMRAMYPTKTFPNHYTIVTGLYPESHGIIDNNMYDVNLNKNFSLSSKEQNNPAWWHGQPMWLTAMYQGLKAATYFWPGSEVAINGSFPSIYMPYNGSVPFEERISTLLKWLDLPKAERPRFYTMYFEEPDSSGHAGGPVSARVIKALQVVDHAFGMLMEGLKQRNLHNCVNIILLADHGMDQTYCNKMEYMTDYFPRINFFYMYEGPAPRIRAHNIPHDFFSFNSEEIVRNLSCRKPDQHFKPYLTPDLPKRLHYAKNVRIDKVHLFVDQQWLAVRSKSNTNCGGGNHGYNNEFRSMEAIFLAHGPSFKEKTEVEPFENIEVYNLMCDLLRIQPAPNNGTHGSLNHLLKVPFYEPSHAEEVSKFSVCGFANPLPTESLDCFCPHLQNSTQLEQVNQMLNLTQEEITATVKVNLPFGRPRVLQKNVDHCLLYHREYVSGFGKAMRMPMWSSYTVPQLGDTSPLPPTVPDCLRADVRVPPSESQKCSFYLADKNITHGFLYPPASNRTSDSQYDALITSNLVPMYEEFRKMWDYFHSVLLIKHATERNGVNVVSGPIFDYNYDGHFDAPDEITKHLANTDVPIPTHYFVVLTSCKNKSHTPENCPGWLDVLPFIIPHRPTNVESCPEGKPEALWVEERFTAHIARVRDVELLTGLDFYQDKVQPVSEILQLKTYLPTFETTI

[2] = molecular target: T2, human ENPP1 (Homo sapiens, UniProt P22413); experiment: ENPP1 assay with ATP substrate (Transcreener AMP2/GMP2 TR-FRET); type: biochemical; settings: 1 hour at room temperature
T2 construct: made in house
T2 sequence (P22413 1-925): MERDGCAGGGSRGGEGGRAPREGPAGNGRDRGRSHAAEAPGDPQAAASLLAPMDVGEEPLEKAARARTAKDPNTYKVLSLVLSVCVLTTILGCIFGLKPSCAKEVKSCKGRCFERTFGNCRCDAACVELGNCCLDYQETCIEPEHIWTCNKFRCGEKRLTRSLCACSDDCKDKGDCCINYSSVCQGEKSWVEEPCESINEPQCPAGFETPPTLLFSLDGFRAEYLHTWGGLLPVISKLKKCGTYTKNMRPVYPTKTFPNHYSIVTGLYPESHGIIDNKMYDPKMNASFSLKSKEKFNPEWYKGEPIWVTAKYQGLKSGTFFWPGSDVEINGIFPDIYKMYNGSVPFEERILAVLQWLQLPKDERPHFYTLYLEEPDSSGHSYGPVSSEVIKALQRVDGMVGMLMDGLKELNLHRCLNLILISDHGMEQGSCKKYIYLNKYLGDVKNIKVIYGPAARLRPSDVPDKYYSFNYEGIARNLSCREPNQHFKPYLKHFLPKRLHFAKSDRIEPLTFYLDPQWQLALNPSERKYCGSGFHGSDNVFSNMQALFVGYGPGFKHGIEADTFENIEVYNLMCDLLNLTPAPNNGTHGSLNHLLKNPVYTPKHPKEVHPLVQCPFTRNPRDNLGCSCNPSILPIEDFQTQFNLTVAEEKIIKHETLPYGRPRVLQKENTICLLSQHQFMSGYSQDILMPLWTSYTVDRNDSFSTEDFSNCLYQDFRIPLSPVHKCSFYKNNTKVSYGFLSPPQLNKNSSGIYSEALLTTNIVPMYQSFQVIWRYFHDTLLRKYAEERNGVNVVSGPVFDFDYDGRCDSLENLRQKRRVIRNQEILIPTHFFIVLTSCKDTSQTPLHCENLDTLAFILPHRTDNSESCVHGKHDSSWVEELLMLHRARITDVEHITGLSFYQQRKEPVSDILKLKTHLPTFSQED
Procedure, shortened: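 Reaction ran 1 h at room temperature in pH 7.5 Tris with MgCl2, TCEP, Tween 20 and 1% DMSO. ATP was added as a 300 nM stock and enzyme as an 8.5 μM stock. After EDTA stop, AMP was read by TR-FRET tracer displacement. Percent inhibition used enzyme/no-enzyme controls; IC50 was fitted with a variable slope.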

Structure (SMILES) | IC50 [1] [µM] | IC50 [2] [µM]
Cc1csc2c(N3CCC(NC(=O)Cc4ccc(F)cc4)CC3)ncnc12 [Example 3.43, 2-(4-Fluorophenyl)-N-(1-(7-methylthieno[3,2-d]pyrimidin-4-yl)piperidin-4-yl)acetamide] | > 20 | 1 to 20
Cc1csc2c(N3CCC(NCCc4ccc(F)cc4)CC3)ncnc12 [Example 3.44, N-(4-Fluorophenethyl)-1-(7-methylthieno[3,2-d]pyrimidin-4-yl)piperidin-4-amine] | > 20 | 0.1 to 1
Cc1csc2c(N3CCC(OCCCc4ccc(F)cc4)CC3)ncnc12 [Example 3.45, 4-(4-(3-(4-Fluorophenyl)propoxy)piperidin-1-yl)-7-methylthieno[3,2-d]pyrimidine] | > 20 | > 20
O=C(CCc1ccc(F)cc1)NC1CCN(c2ncnc3ccsc23)CC1 [Example 3.46, 3-(4-Fluorophenyl)-N-(1-(thieno[3,2-d]pyrimidin-4-yl)piperidin-4-yl)propanamide] | > 20 | > 20
Fc1ccc(CCCNC2CCN(c3ncnc4ccsc34)CC2)cc1 [Example 3.47, N-(3-(4-Fluorophenyl)propyl)-1-(thieno[3,2-d]pyrimidin-4-yl)piperidin-4-amine] | > 20 | 1 to 20
O=C(CCc1ccc(F)cc1)NC1CCN(c2ncnc3c(I)csc23)CC1 [Example 3.48, 3-(4-Fluorophenyl)-N-(1-(7-iodothieno[3,2-d]pyrimidin-4-yl)piperidin-4-yl)propanamide] | > 20 | 0.1 to 1
Cn1ncc2c(N3CCC(NCCCc4ccc(F)cc4)CC3)ncnc21 [Example 3.50, N-(3-(4-Fluorophenyl)propyl)-1-(1-methyl-1H-pyrazolo[3,4-d]pyrimidin-4-yl)piperidin-4-amine] | > 20 | > 20
COc1cc(CCCNC2CCN(c3ncnc4c(C)csc34)CC2)ccn1 [Example 3.51, N-(3-(2-Methoxypyridin-4-yl)propyl)-1-(7-methylthieno[3,2-d]pyrimidin-4-yl)piperidin-4-amine] | > 20 | 0.1 to 1
Cc1nc(N2CCC(NCCCc3ccncc3)CC2)c2scc(C)c2n1 [Example 3.52, 1-(2,7-Dimethylthieno[3,2-d]pyrimidin-4-yl)-N-(3-(pyridin-4-yl)propyl)piperidin-4-amine] | > 20 | > 20
Cc1csc2c(N3CCC(NCCCc4ccncc4)CC3)nc(N3CCN(C)CC3)nc12 [Example 3.53, 1-(7-Methyl-2-(4-methylpiperazin-1-yl)thieno[3,2-d]pyrimidin-4-yl)-N-(3-(pyridin-4-yl)propyl)piperidin-4-amine] | > 20 | > 20
CCc1nc(N2CCC(NCCCc3ccncc3)CC2)c2scc(C)c2n1 [Example 3.54, 1-(2-Ethyl-7-methylthieno[3,2-d]pyrimidin-4-yl)-N-(3-(pyridin-4-yl)propyl)piperidin-4-amine] | > 20 | > 20
Cc1nc(N2CCC(NCCCc3ccc(F)cc3)CC2)c2cnn(C)c2n1 [Example 3.55, 1-(1,6-Dimethyl-1H-pyrazolo[3,4-d]pyrimidin-4-yl)-N-(3-(4-fluorophenyl)propyl)piperidin-4-amine] | > 20 | > 20
Cc1csc2c(N3CCC(NCCCc4ccncc4)CC3)nc(-c3ccccn3)nc12 [Example 3.56, 1-(7-Methyl-2-(pyridin-2-yl)thieno[3,2-d]pyrimidin-4-yl)-N-(3-(pyridin-4-yl)propyl)piperidin-4-amine] | > 20 | > 20
O=C(CCc1ccc(F)cc1)NC1CCN(c2ncnc3c(-c4ccccc4)csc23)CC1 [Example 3.57, 3-(4-Fluorophenyl)-N-(1-(7-phenylthieno[3,2-d]pyrimidin-4-yl)piperidin-4-yl)propanamide] | > 20 | > 20
Fc1ccc(CCCNC2CCN(c3ncnc4c(-c5ccccc5)csc34)CC2)cc1 [Example 3.58, N-(3-(4-Fluorophenyl)propyl)-1-(7-phenylthieno[3,2-d]pyrimidin-4-yl)piperidin-4-amine] | > 20 | 1 to 20
Cc1nsc2c(N3CCC(NCCCc4ccc(F)cc4)CC3)ncnc12 [Example 3.59, N-(3-(4-Fluorophenyl)propyl)-1-(3-methylisothiazolo[4,5-d]pyrimidin-7-yl)piperidin-4-amine] | > 20 | 1 to 20
Cc1nsc2c(=O)n(Cc3ccc(S(N)(=O)=O)cc3)cnc12 [Example 3.60, 4-((3-Methyl-7-oxoisothiazolo[4,5-d]pyrimidin-6(7H)-yl)methyl)benzenesulfonamide] | 1 to 20 | 1 to 20
Cc1csc2c(N3CCC(NCCCc4ccncc4)CC3)nc(-c3ccccc3)nc12 [Example 3.61, 1-(7-Methyl-2-phenylthieno[3,2-d]pyrimidin-4-yl)-N-(3-(pyridin-4-yl)propyl)piperidin-4-amine] | > 20 | > 20
